Measurements taken from US12517131B2, “Methods for labeling eukaryotic cells from a multicellular organism as well as for treating and/or diagnosing a cancer using modified monosaccharide compounds” (DIAMIDEX, priority 2019, dated 2026).

How the values were obtained:
[1] = system: Macrophage (primary cells); experiment: In vitro cytotoxicity of Ara-N3 probe (Annexin V/IP, MTS); format: cell-based, human; settings: tested 1, 10, 50 and 100 mM, 24 h and 48 h
Experimental: (§1) The cell lines (as detailed below in the table) were provided by Inserm/Aquiderm transfer cell. Cell culture of cell lines and cell cytoxicity tests were also carried out by Aquiderm transfer cell, in the laboratory of INSERM U1035.
Human mononucleated cells were isolated from peripheral blood from 2 different healthy donors by convention established with the Etablissement Frangais du Sang d'Aquitaine. The technique used was Ficoll gradient isolation. Briefly, the blood diluted in a phosphate buffered saline solution (PBS) was deposited on a sucrose solution (Ficoll, Eurobio) and centrifuged in order to separate the different blood elements. Between Ficoll and plasma was established a cell ring composed of monocytes and lymphocytes. This was recovered and washed in PBS for counting on the Malassez cell.
Human CD14+monocytes were isolated from […] by magnetic beads coupled to an anti-CD14 antibody (Miltenyi Biotech). The mononuclear cells were incubated for 15 minutes, in PBS buffer, in the presence of a determined concentration of beads depending on the number of cells. […]
Briefly, after incubation of the cells with the Ara-N3 probe at different concentrations and at different times (24 h and 48 h), the cells were recovered, trypsinized (for adherent cells) and washed in PBS. […] They were then directly analyzed by cytometry after adding 100 μL of labeling buffer. […]

[2] = system: MDA MB175 (tumoral cell lines); experiment: as above; format: cell-based
Experimental: as §1
(§2) All the cells were seeded in culture plates, either in 96 wells at the density of 1*10^4 cells/well for the MTS proliferation test, either in 24 wells at the density of 5*10^4 cells/well for the Annexin V test/IP test. Then the cells were incubated at 37° C. and 5% CO2 for 24 hours. After 24 hours, the culture medium was changed in all the wells and the cells adhered to the bottom of the wells were rinsed twice in PBS (Eurobio) or centrifuged and washed twice in PBS for the cells in suspension, before being exposed to the Ara-N3 probe at different concentrations: 1, 10, 50 and 100 mM. The cells were incubated at 37° C. and 5% CO2 for 48 hours.
(§3) This test requires the use of an Annexin V-APC kit (Biolegend) for the detection of apoptosis/necrosis. This test uses the ability of Annexin V to bind to membrane phosphatidylserines (PS) and the intercalating properties of propidium iodide (PI) on DNA.
(§4) Briefly, after incubation of the cells with the Ara-N3 probe at different concentrations and at different times (24 h and 48 h), the cells were recovered, trypsinized (for adherent cells) and washed in PBS. After counting in trypan blue on the Malassez cell, the cells were incubated in a labeling buffer (100 μL) in the presence of Annexin V-APC (5 μL) and of IP (10 μL) for 15 minutes at room temperature and in the dark. They were then directly analyzed by cytometry after adding 100 μL of labeling buffer.
(§5) The non-toxic concentrations of Ara-N3 with respect to the tested cells are gathered in the following Table 5.

[3] = system: MDA MB453 (tumoral cell lines); experiment: as above; format: cell-based
Experimental: as §1, §2, §3, §4, §5

[4] = In vivo non-toxicity of Ara-N3 in nude mice; design: species or system NMRI nude mice
Experimental: Ten Female NMRI nude mice (6 weeks old, Janvier, Le Genest-Saint Isle, France) were enrolled in this assay. Three were injected intravenously every other day for 8 days (4 injections) with 50 mg/mouse/injection of Ara-N3 for 200 mg cumulative dose, and three other mice were treated for 8 days with 50 mg of Ara-N3 in 8 mL of water consumed per day, for 400 mg cumulative dose. As control groups, four tumor-bearing mice were not treated.
Mice were euthanized and dissected at the end of treatment. Heart, lung, brain, uterus, ovaries, kidney, skeletal muscle, spleen, pancreas, abdominal fat, liver, skin, stomach, colon, caecum, small intestine, mesenteric lymph nodes, axillary lymph nodes, brachial lymph nodes and total blood were harvested and frozen for analyses.

[N-]=[N+]=NC[C@H]1OC(O)[C@@H](O)[C@@H]1O (stereo partly drawn) [Ara-N3, 5-azido-5-deoxy-D-arabinofuranose]
Non-toxic concentration of Ara-N3 [1]: >10 mM
Non-toxic concentration of Ara-N3 [2]: >1 mM
Non-toxic concentration of Ara-N3 [3]: >1 mM
water consumption of the mice ([4]; Ara-N3 in drinking water up to 6.25 mg/mL, 8 days): did not alter the water consumption
Non-toxic concentration of Ara-N3 ([4]; In vivo, Nude mouse (mice)): >1 mM
body weight loss ([4]; in drinking water, 50 mg in 8 mL per day for 8 days, 400 mg cumulative dose): did not induce any body weight loss
body weight loss ([4]; intravenous injections, 50 mg/mouse/injection every other day for 8 days, 200 mg cumulative dose): did not induce any body weight loss
